Measurements taken from US10533015B1, “Opioid receptor antagonist prodrugs” (Nirsum Laboratories, Inc., priority 2019, dated 2020).
Read-outs that look alike come from different tables or passages of the source.

Assays:
[1] = Polymorph screening of solid state drug substances; conditions: for Dry method and appearance: after stirring 50 °C 72 hours, dried solid; for XRPD results (Dried): dried solid after 50 °C 72 hours; for Visual observation 50° C. / Visual observation RT: target conc. 100 mg/ml
[2] = Plasma stability assay, rat plasma; format: in vitro ADME; conditions: 10 μM, 37° C.
Method: Plasma stability determination of the test compounds in rat, dog, cynomolgus monkey and human plasma is performed using HPLC-MS. For rat, incubations are carried out in 96-well polypropylene plates in 5 aliquots of 70 μL each (one for each time point). […] Five time points are analyzed (0, 15, 120, 480 and 1440 min). For dog, monkey and human, test compounds (2 μM, final solvent concentration 1%) were also incubated at 37° C. and analyzed at five time points (0, 10, 30, 60 and 120 min). All incubations are performed in duplicates. The samples are analyzed by HPLC-MS. The percentage of parent compound remaining after incubation in plasma is determined.

[3] = heating temp. 40 °C, obs. temp. 40 °C
[4] = heating temp. 60 °C, obs. temp. 40 °C
[5] = heating temp. 60 °C, obs. temp. 25 °C

C=C1CC[C@@]2(O)C3Cc4ccc(OC(=O)CCCCCCCCCCCCCCCCCCC)c5c4[C@@]2(CCN3CC2CC2)[C@H]1O5 [Compound 16, (4aS,7aS,12bS)-3-(cyclopropylmethyl)-4a-hydroxy-7-methylene-2,3,4,4a,5,6,7,7a-octahydro-1H-4,12-methanobenzofuro[3,2-e]isoquinolin-9-yl icosanoate]
Approximate Solubility (mg/mL) in Excipient: Cottonseed oil [3]: 57 to 67 mg/mL | Approximate Solubility (mg/mL) in Excipient: Cottonseed oil [4]: 201 to 403 mg/mL | Approximate Solubility (mg/mL) in Excipient: Ethanol [3]: <25 mg/mL | Approximate Solubility (mg/mL) in Excipient: Sesame oil [3]: 68 to 81 mg/mL | Approximate Solubility (mg/mL) in Excipient: Sesame oil [4]: 202 to 404 mg/mL | Dry method and appearance ([1]; Acetone): Evaporation/white powder | XRPD results (Dried) ([1]; Acetone): Pattern A | Visual observation 50° C. ([1]; Acetone): Clear | Visual observation RT ([1]; Acetone): Slurry | Dry method and appearance ([1]; EtOAc): Evaporation/white powder | XRPD results (Dried) ([1]; EtOAc): Pattern A | Visual observation 50° C. ([1]; EtOAc): Clear | Visual observation RT ([1]; EtOAc): Slurry | Dry method and appearance ([1]; Heptane): Centrifugation/white powder | XRPD results (Dried) ([1]; Heptane): Pattern A | Visual observation 50° C. ([1]; Heptane): Slurry | Visual observation RT ([1]; Heptane): Slurry | Dry method and appearance ([1]; Isopropanol): Centrifugation/white powder | XRPD results (Dried) ([1]; Isopropanol): Pattern A | Visual observation 50° C. ([1]; Isopropanol): Slurry | Visual observation RT ([1]; Isopropanol): Slurry | Dry method and appearance ([1]; MTBE): Evaporation/white powder | XRPD results (Dried) ([1]; MTBE): Pattern A | Visual observation 50° C. ([1]; MTBE): Clear | Visual observation RT ([1]; MTBE): Clear

C=C1CC[C@@]2(O)C3Cc4ccc(OC(=O)OCCCCCCCC)c5c4[C@@]2(CCN3CC2CC2)[C@H]1O5 [Compound 17, (4aS,7aS,12bS)-3-(cyclopropylmethyl)-4a-hydroxy-7-methylene-2,3,4,4a,5,6,7,7a-octahydro-1H-4,12-methanobenzofuro[3,2-e]isoquinolin-9-yl octyl carbonate]
% remaining at time point ([2]; 0 min): 100% | % remaining at time point ([2]; 15 min): 0% | % remaining at time point ([2]; 120 min): 0% | % remaining at time point ([2]; 480 min): 0% | % remaining at time point ([2]; 1440 min): 0%

C=C1CC[C@@]2(O)C3Cc4ccc(OC(=O)OCCCCCCCCCC)c5c4[C@@]2(CCN3CC2CC2)[C@H]1O5 [Compound 18, (4aS,7aS,12bS)-3-(cyclopropylmethyl)-4a-hydroxy-7-methylene-2,3,4,4a,5,6,7,7a-octahydro-1H-4,12-methanobenzofuro[3,2-e]isoquinolin-9-yl decyl carbonate]
% remaining at time point ([2]; 0 min): 100% | % remaining at time point ([2]; 15 min): 0.6% | % remaining at time point ([2]; 120 min): 0.3% | % remaining at time point ([2]; 480 min): 0.1% | % remaining at time point ([2]; 1440 min): 0% | Approximate Solubility (mg/mL) in Excipient: Cottonseed oil [3]: >403 mg/mL | Approximate Solubility (mg/mL) in Excipient: Cottonseed oil [5]: >400 mg/mL | Approximate Solubility (mg/mL) in Excipient: Ethanol [3]: >209 mg/mL | Approximate Solubility (mg/mL) in Excipient: Sesame oil [3]: >403 mg/mL | Approximate Solubility (mg/mL) in Excipient: Sesame oil [5]: >402 mg/mL | Equilibrium solubility (mg/mL) Water [3]: <0.0002 mg/mL

CCCCCCCCOC(=O)Oc1ccc2c3c1O[C@H]1C(=O)CC[C@@]4(O)C(C2)N(CC2CC2)CC[C@]314 [Compound 23, (4aS,7aR,12bS)-3-(cyclopropylmethyl)-4a-hydroxy-7-oxo-2,3,4,4a,5,6,7,7a-octahydro-1H-4,12-methanobenzofuro[3,2-e]isoquinolin-9-yl octyl carbonate]
% remaining at time point ([2]; 0 min): 100% | % remaining at time point ([2]; 15 min): 0% | % remaining at time point ([2]; 120 min): 0% | % remaining at time point ([2]; 480 min): 0% | % remaining at time point ([2]; 1440 min): 0%

C=C1CC[C@@]2(O)C3Cc4ccc(OCOC(=O)OCCCCCCCCCCCCCC)c5c4[C@@]2(CCN3CC2CC2)[C@H]1O5 [Compound 25, (((4aS,7aS,12bS)-3-(cyclopropylmethyl)-4a-hydroxy-7-methylene-2,3,4,4a,5,6,7,7a-octahydro-1H-4,12-methanobenzofuro[3,2-e]isoquinolin-9-yl)oxy)methyl tetradecyl carbonate]
% remaining at time point ([2]; 0 min): 100% | % remaining at time point ([2]; 15 min): 82.6% | % remaining at time point ([2]; 120 min): 69.3% | % remaining at time point ([2]; 480 min): 62.2% | % remaining at time point ([2]; 1440 min): 51.7% | Approximate Solubility (mg/mL) in Excipient: Cottonseed oil [5]: >414 mg/mL | Equilibrium solubility (mg/mL) Water [3]: <0.001 mg/mL

CCCCCCCC/C=C\CCCCCCCC(=O)Oc1ccc2c3c1O[C@H]1C(=O)CC[C@@]4(O)C(C2)N(CC2CC2)CC[C@]314 [Compound 41, (4aS,7aR,12bS)-3-(cyclopropylmethyl)-4a-hydroxy-7-oxo-2,3,4,4a,5,6,7,7a-octahydro-1H-4,12-methanobenzofuro[3,2-e]isoquinolin-9-yl oleate]
Approximate Solubility (mg/mL) in Excipient: Cottonseed oil [3]: >407 mg/mL | Approximate Solubility (mg/mL) in Excipient: Cottonseed oil [5]: <50 mg/mL | Approximate Solubility (mg/mL) in Excipient: Ethanol [3]: >201 mg/mL | Approximate Solubility (mg/mL) in Excipient: Sesame oil [5]: <50 mg/mL

C=C1CC[C@@]2(O)C3Cc4ccc(OCOC(=O)CCCCCCCCCCC)c5c4[C@@]2(CCN3CC2CC2)[C@H]1O5 [Compound 44, (((4aS,7aS,12bS)-3-(cyclopropylmethyl)-4a-hydroxy-7-methylene-2,3,4,4a,5,6,7,7a-octahydro-1H-4,12-methanobenzofuro[3,2-e]isoquinolin-9-yl)oxy)methyl dodecanoate]
Approximate Solubility (mg/mL) in Excipient: Cottonseed oil [5]: >407 mg/mL | Approximate Solubility (mg/mL) in Excipient: Sesame oil [5]: 208 to 231 mg/mL | Equilibrium solubility (mg/mL) Water [3]: <0.001 mg/mL

C=C1CC[C@@]2(O)C3Cc4ccc(OCOC(=O)CCCCCCCCCCCCCCC)c5c4[C@@]2(CCN3CC2CC2)[C@H]1O5 [Compound 46, (((4aS,7aS,12bS)-3-(cyclopropylmethyl)-4a-hydroxy-7-methylene-2,3,4,4a,5,6,7,7a-octahydro-1H-4,12-methanobenzofuro[3,2-e]isoquinolin-9-yl)oxy)methyl hexadecanoate]
Approximate Solubility (mg/mL) in Excipient: Cottonseed oil [5]: >395.5 mg/mL | Approximate Solubility (mg/mL) in Excipient: Sesame oil [5]: 202 to 269 mg/mL | Equilibrium solubility (mg/mL) Water [3]: <0.001 mg/mL

CCCCCCCCCCCCCCCCOC(=O)OCOc1ccc2c3c1O[C@H]1C(=O)CC[C@@]4(O)C(C2)N(CC2CC2)CC[C@]314 [Compound 47, (((4aS,7aR,12bS)-3-(cyclopropylmethyl)-4a-hydroxy-7-oxo-2,3,4,4a,5,6,7,7a-octahydro-1H-4,12-methanobenzofuro[3,2-e]isoquinolin-9-yl)oxy)methyl hexadecyl carbonate]
Approximate Solubility (mg/mL) in Excipient: Cottonseed oil [5]: >405.5 mg/mL | Equilibrium solubility (mg/mL) Water [3]: <0.001 mg/mL

CCCCCCCCCCCC(=O)OCOc1ccc2c3c1O[C@H]1C(=O)CC[C@@]4(O)C(C2)N(CC2CC2)CC[C@]314 [Compound 48, (((4aS,7aR,12bS)-3-(cyclopropylmethyl)-4a-hydroxy-7-oxo-2,3,4,4a,5,6,7,7a-octahydro-1H-4,12-methanobenzofuro[3,2-e]isoquinolin-9-yl)oxy)methyl dodecanoate]
Approximate Solubility (mg/mL) in Excipient: Cottonseed oil [5]: >410.5 mg/mL

CCCCCCCCCCCCCCCC(=O)OCOc1ccc2c3c1O[C@H]1C(=O)CC[C@@]4(O)C(C2)N(CC2CC2)CC[C@]314 [Compound 49, (((4aS,7aR,12bS)-3-(cyclopropylmethyl)-4a-hydroxy-7-oxo-2,3,4,4a,5,6,7,7a-octahydro-1H-4,12-methanobenzofuro[3,2-e]isoquinolin-9-yl)oxy)methyl hexadecanoate]
Approximate Solubility (mg/mL) in Excipient: Cottonseed oil [5]: <50 mg/mL | Approximate Solubility (mg/mL) in Excipient: Sesame oil [5]: <51 mg/mL

Enalapril maleate salt [reference compound]
% remaining at time point ([2]; 0 min): 100% | % remaining at time point ([2]; 15 min): 44% | % remaining at time point ([2]; 120 min): 2.9% | % remaining at time point ([2]; 480 min): 8.2% | % remaining at time point ([2]; 1440 min): 4.8%
